Measured values as given in US20250129021A1, “SMALL MOLECULE PROTEIN SYNTHESIS MODULATORS” (Interdict Bio, Inc., priority 2023, published 2025).

Experiments:
Assay type in all cases: biochemical
[1] = test system: CCNTB1; assay: In vitro transcription-translation (IVTT) assay, CCNTB1 reporter; conditions: HeLa S3 lysate, 2 hrs at 30° C.
Protocol: (§1) Each preparation takes 8 cell pellets (4 ml packed volume each, approximately 1.0×10^9 cells per pellet). Thaw cell pellets from −80° C. on ice for 90 mins. Lay pellets horizontally on top of the ice and rotate every 30 mins to ensure even thawing. Once thawed, add 4 mL of cold lysis buffer to each pellet, and using a serological pipet, gently pipet up and down to break up clumps. Incubate resuspended cells in ice for an additional 30 mins (plunged into ice). During 30 min incubation, rinse and RNase-zap (Ambion) glass dounces (use loose pestle “A”), gently dry and place on ice until needed. Prepare RNase-free Eppendorf tubes for spinning and for batch storage. Add batch labels to 1.5-1.7 mL RNase-free microcentrifuge tubes (labeling scheme below). Each batch will have an extra 1.5-1.7 mL RNase-free microcentrifuge tube for 40 μL of lysate, label the top of this tube (labeling scheme below). After 30 min incubation, transfer all 8 mL of cell pellet to dounce. Cell lysis is complete after douncing 100 times. Aliquot cell lysis into 1.5-1.7 mL temporary-microcentrifuge tubes. Place tubes in centrifuge with “fins” out, and spin at 1,200×g for 5 mins. After the first spin use a 1 mL pipet to resuspend each tube and repeat spin. This acts as an additional lysis step, is more vigorous and increases lysate yield. During second spin get liquid N2 and a fresh conical tube on ice. After spin is complete, transfer supernatant (lysate) from microcentrifuge tubes into the 50 mL conical tube and keep on ice. Repeat steps 10-14 for all other cell pellets until completed. Once all cell lysate has been transferred to the 50 mL conical tube pipet to mix so the solution is homogenous. Transfer 1 mL of lysate into batch-labeled microcentrifuge tubes and flash freeze in liquid nitrogen. Be sure to pipet up and down to mix throughout transfer step. Place all tubes in the […] for long-term storage.
In vitro transcription-translation assay setup: Each assay includes a master mix containing lysate and shared components, a 96-well plate containing compound titrations for testing, a 96-well DNA plate with reporter constructs to be tested, 96-well skirted PCR plates, and 96-well flat-bottom, black, fluorescent assay plates. Reaction materials setup: (A) Master mix—15 mL conical tube (3 mL of HeLa S3 Lysate described above; 0.6 mL of ThermoFisher Accessory Proteins (#88882); 1.2 ml of ThermoFisher Reaction Mix (#88882); 0.54 mL of nuclease-free Water); (B) 96-Well Master Mix+Compound Plate (Half-log dilutions (30 μM−0.1 μM) of 4 compounds of interest are prepared in 100% DMSO); 96-Well DNA Plate (Five DNA constructs are plated into single columns within the plate. Row 1 of the column contains nuclease free H2O, all other wells contain 110 ng/μL plasmid DNA). Reactions are started by mixing 155 μL of master mix and 3.5 μL of compound serial dilutions, then 9.1 μL of master mix+compound mixture is aliquoted across 5 96-well plates. Reactions begin with final addition of 2 μL of DNA for a 11.1 μL reaction volume in each well. The entire plate is sealed, and incubated for 2 hrs at 30° C. After 2 hrs, quench the assay using 45 μL of PBS, and transfer 50 μL to a flat-bottom black microplate Quantify the sfGFP and mCherry signals from each well on each plate, taking 3 reads of each plate, and perform data analysis below.
In vitro transcription-translation assay data analysis: Each plate is read three times in channels for both sfGFP and mCherry signals. The average signal across these 3 reads is then calculated for further analysis. Control wells containing no DNA reporter are subtracted from reporter wells in the same column to remove auto-fluorescence of the lysate. Then, the ratio of sfGFP/mCherry is calculated per well, and these ratios are averaged across the triplicate experiments on the same plate. Finally, the ratio of each titration concentration is normalized to the no drug control to create the normalized stalling metric. […]

[2] = test system: CCND1; assay: In vitro transcription-translation (IVTT) assay, CCND1 reporter; conditions: IVTT, HeLa S3 lysate, 2 hrs at 30° C.
Description: (§2) All reporter constructs have been cloned into the pT7CFE1-CHis plasmid (ThermoFisher #88860) using Gibson assembly procedures (NEB #E2611L). The parental pT7CFE1-CHis plasmid contains an EMCV IRES at the 5′UTR for translation initiation, a multiple-cloning site (MCS) for gene insertion, an optional C-terminal His-epitope tag, and polyA sequence in the 3′UTR to regulate mRNA stability. All reporters are designed to be inserted at the MCS to include a red fluorescent protein (mCherry), P2A self-cleaving peptide which releases the preceding mCherry protein product, and a fusion open reading frame containing a 3×FLAG epitope, a peptide sequence of interest (TEST), and green fluorescent protein (sfGFP).
(§3) Construct Plasmid Preparation: All plasmids are isolated from MACH1 cells (ThermoFisher) grown overnight in ampicillin-containing luria broth, and purified using ZymoPure Express Plasmid Midiprep Kit (Zymo Research). Constructs are sequenced verified and diluted to a working concentration of 110 ng/μL.
(§4) HeLa S3 Lysate Preparation: HeLa S3 cell pellets are acquired from Ipracell/Ipratech (Belgium) and shipped as 4 mL frozen cell pellets on dry ice for storage at −80° C. until use. The procedure for lysate preparation is as follows. Prepare 1× Lysis Buffer, cold and stored on ice:
as §1
(§5) In vitro transcription-translation assay setup: Each assay includes a master mix containing lysate and shared components, a 96-well plate containing compound titrations for testing, a 96-well DNA plate with reporter constructs to be tested, 96-well skirted PCR plates, and 96-well flat-bottom, black, fluorescent assay plates. […]

[3] = test system: MCL-1; assay: In vitro transcription-translation (IVTT) assay, MCL-1 reporter; conditions: IVTT, HeLa S3 lysate, 2 hrs at 30° C.; read-out: MCL1 IC50
Description: as §2, §3, §4, §1, §5

[4] = test system: MYC; assay: In vitro transcription-translation (IVTT) assay, MYC reporter; conditions: IVTT assay, HeLa S3 lysate, MYC reporter, normalized sfGFP/mCherry ratio; half-log dilutions 30 μM-0.1 μM, 2 hrs at 30° C.
Description: as §2, §3, §4, §1, §5

Row | IC50 [1] [µM] | IC50 [2] [µM] | IC50 [3] [µM] | Structure (SMILES) | IC50 [4] [µM]
1 | < 10 | < 10 | < 10 | COc1ccc(C[C@H]2NC[C@H](O)[C@H]2OC(=O)NCc2ccc(N)nc2)cc1 [V188316, (2R,3S,4S)-4-hydroxy-2-[(4-methoxyphenyl)methyl]pyrrolidin-3-yl N-[(6-aminopyridin-3-yl)methyl]carbamate] | < 10
2 | < 10 | < 10 | < 10 | COc1ccc(C[C@H]2NC[C@H](O)[C@H]2OC(=O)NCC2CCC2)cc1 [V188318, (2R,3S,4S)-4-hydroxy-2-[(4-methoxyphenyl)methyl]pyrrolidin-3-yl N-(cyclobutylmethyl)carbamate] | < 10
3 | 10 to 20 | > 30 | 10 to 20 | COc1ccc(C[C@H]2NC[C@H](O)[C@H]2OC(=O)NCc2ccc(C3CC3)cc2)cc1 [V188321, (2R,3S,4S)-4-hydroxy-2-[(4-methoxyphenyl)methyl]pyrrolidin-3-yl N-[(4-cyclopropylphenyl)methyl]carbamate] | > 30
4 | < 10 | < 10 | < 10 | COc1ccc(C[C@H]2NC[C@H](O)[C@H]2OC(=O)NCc2ccc(CN)cc2)cc1 [V188322, (2R,3S,4S)-4-hydroxy-2-[(4-methoxyphenyl)methyl]pyrrolidin-3-yl N-{[4-(aminomethyl)phenyl]methyl}carbamate] | < 10
5 | < 10 | 20 to 30 | 20 to 30 | COc1ccc(C[C@H]2NC[C@H](O)[C@H]2OC(=O)NCC23CC(N)(C2)C3)cc1 [V188323, (2R,3S,4S)-4-hydroxy-2-[(4-methoxyphenyl)methyl]pyrrolidin-3-yl N-({3-aminobicyclo[1.1.1]pentan-1-yl}methyl)carbamate] | 10 to 20
6 | < 10 | 10 to 20 | 10 to 20 | COc1ccc(C[C@H]2NC[C@H](O)[C@H]2OC(=O)NCC23CC(C2)C3)cc1 [V188324, (2R,3S,4S)-4-hydroxy-2-[(4-methoxyphenyl)methyl]pyrrolidin-3-yl N-{bicyclo[1.1.1]pentan-1-ylmethyl}carbamate] | 10 to 20
7 | < 10 | < 10 | < 10 | O=C(NCC1CC1)O[C@@H]1[C@@H](O)CN[C@@H]1Cc1ccc(-c2c[nH]nn2)cc1 [V188327, (2R,3S,4S)-4-hydroxy-2-{[4-(1H−1,2,3-triazol-4-yl)phenyl]methyl}pyrrolidin-3-yl N-(cyclopropylmethyl)carbamate] | < 10
8 | < 10 | < 10 | < 10 | O=C(NCc1ccccc1)O[C@@H]1[C@@H](O)CN[C@@H]1Cc1ccc(C2CC2)cc1 [V188329, (2R,3S,4S)-2-[(4-cyclopropylphenyl)methyl]-4-hydroxypyrrolidin-3-yl N-benzylcarbamate] | < 10
9 | < 10 | < 10 | < 10 | O=C(NCc1ccccc1)O[C@@H]1[C@@H](O)CN[C@@H]1Cc1ccc(-c2c[nH]nn2)cc1 [V188331, (2R,3S,4S)-4-hydroxy-2-{[4-(1H−1,2,3-triazol-4-yl)phenyl]methyl}pyrrolidin-3-yl N-benzylcarbamate] | < 10
10 | < 10 | < 10 | < 10 | COc1ccc(C[C@H]2NC[C@H](O)[C@H]2OC(=O)NCC[C@@H]2CCCN2)cc1 [V188341, (2R,3S,4S)-4-hydroxy-2-[(4-methoxyphenyl)methyl]pyrrolidin-3-yl N-{2-[(2S)-pyrrolidin-2-yl]ethyl}carbamate] | < 10
11 | < 10 | 20 to 30 | 10 to 20 | COc1ccc(C[C@H]2NC[C@H](O)[C@H]2OC(=O)NCC[C@H]2CCCN2)cc1 [V188342, (2R,3S,4S)-4-hydroxy-2-[(4-methoxyphenyl)methyl]pyrrolidin-3-yl N-{2-[(2R)-pyrrolidin-2-yl]ethyl}carbamate] | < 10
12 | < 10 | < 10 | < 10 | COc1ccc(C[C@H]2NC[C@H](O)[C@H]2OC(=O)NCCc2ccc3c(c2)CNC3)cc1 [V188344, (2R,3S,4S)-4-hydroxy-2-[(4-methoxyphenyl)methyl]pyrrolidin-3-yl N-[2-(2,3-dihydro-1H-isoindol-5-yl)ethyl]carbamate] | < 10
13 | < 10 | < 10 | < 10 | COc1ccc(C[C@H]2NC[C@H](O)[C@H]2OC(=O)NCc2ccc3c(c2)CCNC3)cc1 [V188345, (2R,3S,4S)-4-hydroxy-2-[(4-methoxyphenyl)methyl]pyrrolidin-3-yl N-(1,2,3,4-tetrahydroisoquinolin-6-ylmethyl)carbamate] | < 10
14 | < 10 | < 10 | < 10 | COc1ccc(C[C@H]2NC[C@H](O)[C@H]2OC(=O)NCc2ccc3cnccc3c2)cc1 [V188348, (2R,3S,4S)-4-hydroxy-2-[(4-methoxyphenyl)methyl]pyrrolidin-3-yl N-(isoquinolin-6-ylmethyl)carbamate] | < 10
15 | < 10 | < 10 | < 10 | COc1ccc(C[C@H]2NC[C@H](O)[C@H]2OC(=O)NCc2ccc(C3CCCN3)cc2)cc1 (stereo partly drawn) [V188355, (2R,3S,4S)-4-hydroxy-2-[(4-methoxyphenyl)methyl]pyrrolidin-3-yl N-{[4-(pyrrolidin-2-yl)phenyl]methyl}carbamate] | < 10

Row | Structure (SMILES) | IC50 [1] [µM] | IC50 [2] [µM] | IC50 [3] [µM] | IC50 [4] [µM]
16 | COc1ccc(C[C@H]2NC[C@H](O)[C@H]2OC(=O)NCCC[C@H]2CCNC2)cc1 [V188340, (2R,3S,4S)-4-hydroxy-2-[(4-methoxyphenyl)methyl]pyrrolidin-3-yl N-{3-[(3S)-pyrrolidin-3-yl]propyl}carbamate] | < 10 | 10 to 20 | < 10 | < 10
17 | COc1ccc(C[C@H]2NC[C@H](O)[C@H]2OC(=O)NCc2ccc(C3CCNC3)cc2)cc1 (stereo partly drawn) [V188354, (2R,3S,4S)-4-hydroxy-2-[(4-methoxyphenyl)methyl]pyrrolidin-3-yl N-{[4-(pyrrolidin-3-yl)phenyl]methyl}carbamate] | < 10 | < 10 | < 10 | < 10
